Data reported in US20050065208A1, “Benzofuranes and their use in the treatment of atrial fibrillation” (priority 2001, published 2005).
Like-named read-outs stand apart in the source and are kept apart here.

Key:
[1] = target: T1, IK(Ado), adenosine activated K-current (Homo sapiens, UniProt P48544+P48549); parameters: key to Blocking activity on IK(Ado): Yes: The compound has been demonstrated to inhibit the particular current (reference within parenthesis).; No: The compound has been demonstrated to not inhibit the particular current (reference within parenthesis).; U: No data regarding interaction of the compound with the particular current has been found in the literature; details: cited from earlier work; for IC50: literature value, read-out: Inhibition of IK (Ado) Induced by Adenosine (IC50); for Blocking activity on IK(Ado): Table 2, literature
T1 construct: electrophysiology technique applied to cardiomyocyte cultures; endogenous in cells
T1 sequence (P48549 1-501): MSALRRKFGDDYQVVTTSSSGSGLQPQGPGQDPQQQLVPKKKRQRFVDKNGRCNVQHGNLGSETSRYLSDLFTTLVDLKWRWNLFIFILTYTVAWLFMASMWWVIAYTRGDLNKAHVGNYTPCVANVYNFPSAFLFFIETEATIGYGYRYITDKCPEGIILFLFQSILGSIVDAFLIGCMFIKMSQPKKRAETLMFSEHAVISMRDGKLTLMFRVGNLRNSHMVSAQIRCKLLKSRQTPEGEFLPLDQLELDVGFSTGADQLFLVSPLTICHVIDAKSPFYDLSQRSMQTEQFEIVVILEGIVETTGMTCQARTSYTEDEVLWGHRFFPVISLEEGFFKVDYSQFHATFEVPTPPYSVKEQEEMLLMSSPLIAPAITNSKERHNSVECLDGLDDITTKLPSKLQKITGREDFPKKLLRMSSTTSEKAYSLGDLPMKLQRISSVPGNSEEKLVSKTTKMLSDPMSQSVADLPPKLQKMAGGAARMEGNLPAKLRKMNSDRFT
T1 sequence (P48544 1-419): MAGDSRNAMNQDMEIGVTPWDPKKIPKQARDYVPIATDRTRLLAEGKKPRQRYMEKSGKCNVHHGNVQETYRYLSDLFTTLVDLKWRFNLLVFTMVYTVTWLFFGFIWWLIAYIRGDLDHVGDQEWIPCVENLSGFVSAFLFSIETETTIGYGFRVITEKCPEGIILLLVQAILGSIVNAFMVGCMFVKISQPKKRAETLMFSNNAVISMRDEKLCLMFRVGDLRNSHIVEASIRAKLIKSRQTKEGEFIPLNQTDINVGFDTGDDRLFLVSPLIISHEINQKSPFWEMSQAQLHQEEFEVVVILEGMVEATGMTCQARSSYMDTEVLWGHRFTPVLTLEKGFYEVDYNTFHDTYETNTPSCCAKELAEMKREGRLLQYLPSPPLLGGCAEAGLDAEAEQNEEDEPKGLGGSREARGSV

[2] = target: T2, IK(ACh), AcetylCholine activated K-current (Homo sapiens, UniProt P48544+P48549); parameters: key to Blocking activity on IK(ACh): Yes: The compound has been demonstrated to inhibit the particular current (reference within parenthesis).; No: The compound has been demonstrated to not inhibit the particular current (reference within parenthesis).; U: No data regarding interaction of the compound with the particular current has been found in the literature; details: cited from earlier work; for IC50: current induced by ACh or carbachol, literature value, read-out: Inhibition of IK (ACh) (Induced by ACh or Carbachol) (IC50); for Blocking activity on IK(ACh): Table 2, literature
T2 construct: electrophysiology technique applied to cardiomyocyte cultures; endogenous in cells
T2 sequence (P48549 1-501): T1 sequence (P48549 1-501)
T2 sequence (P48544 1-419): T1 sequence (P48544 1-419)

[3] = test system: IK1, inward rectifier K-current; parameters: key: Yes: The compound has been demonstrated to inhibit the particular current (reference within parenthesis).; No: The compound has been demonstrated to not inhibit the particular current (reference within parenthesis).; U: No data regarding interaction of the compound with the particular current has been found in the literature; details: Table 2, literature; cited from earlier work
[4] = target: IKs, slow component of the delayed rectifier K-current (Homo sapiens, UniProt P51787); parameters: key: Yes: The compound has been demonstrated to inhibit the particular current (reference within parenthesis).; No: The compound has been demonstrated to not inhibit the particular current (reference within parenthesis).; U: No data regarding interaction of the compound with the particular current has been found in the literature; details: Table 2, literature; cited from earlier work
[5] = test system: Ito, transient outward K-current; parameters: key: Yes: The compound has been demonstrated to inhibit the particular current (reference within parenthesis).; No: The compound has been demonstrated to not inhibit the particular current (reference within parenthesis).; U: No data regarding interaction of the compound with the particular current has been found in the literature; details: Table 2, literature; cited from earlier work
[6] = target: INa, depolarizing Na-current (Homo sapiens, UniProt Q14524); parameters: key: Yes: The compound has been demonstrated to inhibit the particular current (reference within parenthesis).; No: The compound has been demonstrated to not inhibit the particular current (reference within parenthesis).; U: No data regarding interaction of the compound with the particular current has been found in the literature; details: Table 2, literature; cited from earlier work
[7] = target: T3, IK(ATP), ATP-sensitive K-current (Homo sapiens, UniProt Q14654); parameters: key: Yes: The compound has been demonstrated to inhibit the particular current (reference within parenthesis).; No: The compound has been demonstrated to not inhibit the particular current (reference within parenthesis).; U: No data regarding interaction of the compound with the particular current has been found in the literature; details: Table 2, literature; cited from earlier work
T3 construct: electrophysiology technique applied to cardiomyocyte cultures; endogenous in cells; current induced with dinitrophenole

[8] = target: T1, IK(Ado), adenosine activated K-current; assay: Voltage clamp on cardiomyocyte cultures: inhibition of adenosine-induced K-current; assay type: cell-based
Excerpt: (§1) In the present invention acute and chronic effects of various compounds have been investigated by using electrophysiology technique applied to cardiomyocyte cultures.
(§2) The inhibitory effects occur within seconds after induction of the current with ACh, Ado or dinitrophenole (DNP reduces intracellular ATP). The acute inhibitory effects caused by the compounds of the present invention on these K-currents in cardiac muscle tissue had not previously been discovered. The reasons for this include the fact that these ligand activated K-currents (IK(Ado), IK(ACh) and IK(ATP)) are preferentially active in the atrial cardiomyocytes (Workman A J et al. Cardiovasc Res 1999 September;43(4):974-84; Koumi S-I, and Wasserstorm A. American Journal of Physiology 266[35], H1812-H1821. 1994), while previous studies have been carried out with tissue from cardiac ventricles. Furthermore, IK(Ado) and IK(ACh) must first be induced via the M2 or A1 receptor (with ACh and Ado respectively) before any inhibition can be observed. Without any agonist at the extracellular site of the membrane these ligand-gated channels probably have only minor roles in shaping repolarization but, when activated by extracellular acetylcholine or adenosine, they can substantially shorten action potential duration in the atrium (Tristani-Firouzi M et al. Am J Med 2001 January; 110(1):50-9).
(§3) The following Table 1 illustrates the potency (IC50-values) of compounds of formulae I and II compared with other anti-arrhythmic drugs to inhibit the transmembrane currents IK(Ado) and IK(ACh) after stimulation of the currents with Adenosine or Acetylcholine (or Carbachol).

[9] = target: T2, IK(ACh), AcetylCholine activated K-current; assay: Voltage clamp on cardiomyocyte cultures: inhibition of K-current induced by ACh or carbachol; assay type: cell-based
Excerpt: as §1, §2, §3

T3 sequence (Q14654 whole entry): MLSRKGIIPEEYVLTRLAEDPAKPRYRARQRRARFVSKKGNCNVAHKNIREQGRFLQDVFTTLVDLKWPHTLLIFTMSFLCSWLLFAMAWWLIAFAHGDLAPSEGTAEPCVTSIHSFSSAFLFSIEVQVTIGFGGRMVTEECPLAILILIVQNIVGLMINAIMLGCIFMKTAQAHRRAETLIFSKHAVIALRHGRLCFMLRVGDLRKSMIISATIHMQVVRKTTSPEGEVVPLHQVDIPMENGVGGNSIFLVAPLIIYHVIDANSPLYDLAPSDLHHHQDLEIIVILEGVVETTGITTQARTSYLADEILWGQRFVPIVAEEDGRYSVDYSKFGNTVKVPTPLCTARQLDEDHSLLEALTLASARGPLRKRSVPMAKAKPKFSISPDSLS
T3 sequence (O60706 whole entry partner): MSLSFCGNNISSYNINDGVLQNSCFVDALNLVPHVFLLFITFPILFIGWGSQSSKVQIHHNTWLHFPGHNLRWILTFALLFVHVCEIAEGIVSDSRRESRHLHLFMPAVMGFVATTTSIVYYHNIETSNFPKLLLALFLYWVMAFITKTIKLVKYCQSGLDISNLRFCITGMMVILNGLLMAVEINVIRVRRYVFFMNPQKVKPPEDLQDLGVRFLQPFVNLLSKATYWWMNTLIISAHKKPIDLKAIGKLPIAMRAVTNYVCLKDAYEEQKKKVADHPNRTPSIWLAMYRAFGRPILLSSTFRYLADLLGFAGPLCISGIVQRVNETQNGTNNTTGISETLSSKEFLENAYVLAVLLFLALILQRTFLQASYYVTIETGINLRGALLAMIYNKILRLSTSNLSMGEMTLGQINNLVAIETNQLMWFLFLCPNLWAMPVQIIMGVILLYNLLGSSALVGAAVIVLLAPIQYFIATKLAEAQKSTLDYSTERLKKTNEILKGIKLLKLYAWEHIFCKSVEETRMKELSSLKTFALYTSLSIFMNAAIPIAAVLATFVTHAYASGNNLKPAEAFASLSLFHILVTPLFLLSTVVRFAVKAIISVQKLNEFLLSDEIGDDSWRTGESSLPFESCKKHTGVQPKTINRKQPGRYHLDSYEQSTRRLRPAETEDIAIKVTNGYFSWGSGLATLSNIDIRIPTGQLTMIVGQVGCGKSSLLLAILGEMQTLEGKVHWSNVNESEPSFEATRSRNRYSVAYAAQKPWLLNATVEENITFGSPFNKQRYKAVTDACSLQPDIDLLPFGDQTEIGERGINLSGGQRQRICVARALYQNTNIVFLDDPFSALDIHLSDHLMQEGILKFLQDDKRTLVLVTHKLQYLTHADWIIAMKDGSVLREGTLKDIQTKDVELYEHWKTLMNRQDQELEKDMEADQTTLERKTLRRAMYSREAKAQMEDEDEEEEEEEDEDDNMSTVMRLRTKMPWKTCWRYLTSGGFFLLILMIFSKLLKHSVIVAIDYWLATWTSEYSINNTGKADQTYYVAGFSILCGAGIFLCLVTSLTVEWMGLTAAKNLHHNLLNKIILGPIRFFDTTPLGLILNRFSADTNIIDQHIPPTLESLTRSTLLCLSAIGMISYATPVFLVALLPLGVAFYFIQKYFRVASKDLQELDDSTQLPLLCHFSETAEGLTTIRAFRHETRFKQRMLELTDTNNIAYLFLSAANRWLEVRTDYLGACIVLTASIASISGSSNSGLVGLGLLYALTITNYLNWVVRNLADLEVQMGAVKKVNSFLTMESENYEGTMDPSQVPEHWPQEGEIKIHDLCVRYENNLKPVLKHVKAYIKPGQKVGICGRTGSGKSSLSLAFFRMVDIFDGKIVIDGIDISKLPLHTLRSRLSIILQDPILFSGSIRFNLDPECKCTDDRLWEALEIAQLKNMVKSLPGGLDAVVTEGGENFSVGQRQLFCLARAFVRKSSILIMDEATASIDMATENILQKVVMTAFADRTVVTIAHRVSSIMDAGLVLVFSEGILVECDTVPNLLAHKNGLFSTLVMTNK
INa, depolarizing Na-current, sequence (Q14524 whole entry): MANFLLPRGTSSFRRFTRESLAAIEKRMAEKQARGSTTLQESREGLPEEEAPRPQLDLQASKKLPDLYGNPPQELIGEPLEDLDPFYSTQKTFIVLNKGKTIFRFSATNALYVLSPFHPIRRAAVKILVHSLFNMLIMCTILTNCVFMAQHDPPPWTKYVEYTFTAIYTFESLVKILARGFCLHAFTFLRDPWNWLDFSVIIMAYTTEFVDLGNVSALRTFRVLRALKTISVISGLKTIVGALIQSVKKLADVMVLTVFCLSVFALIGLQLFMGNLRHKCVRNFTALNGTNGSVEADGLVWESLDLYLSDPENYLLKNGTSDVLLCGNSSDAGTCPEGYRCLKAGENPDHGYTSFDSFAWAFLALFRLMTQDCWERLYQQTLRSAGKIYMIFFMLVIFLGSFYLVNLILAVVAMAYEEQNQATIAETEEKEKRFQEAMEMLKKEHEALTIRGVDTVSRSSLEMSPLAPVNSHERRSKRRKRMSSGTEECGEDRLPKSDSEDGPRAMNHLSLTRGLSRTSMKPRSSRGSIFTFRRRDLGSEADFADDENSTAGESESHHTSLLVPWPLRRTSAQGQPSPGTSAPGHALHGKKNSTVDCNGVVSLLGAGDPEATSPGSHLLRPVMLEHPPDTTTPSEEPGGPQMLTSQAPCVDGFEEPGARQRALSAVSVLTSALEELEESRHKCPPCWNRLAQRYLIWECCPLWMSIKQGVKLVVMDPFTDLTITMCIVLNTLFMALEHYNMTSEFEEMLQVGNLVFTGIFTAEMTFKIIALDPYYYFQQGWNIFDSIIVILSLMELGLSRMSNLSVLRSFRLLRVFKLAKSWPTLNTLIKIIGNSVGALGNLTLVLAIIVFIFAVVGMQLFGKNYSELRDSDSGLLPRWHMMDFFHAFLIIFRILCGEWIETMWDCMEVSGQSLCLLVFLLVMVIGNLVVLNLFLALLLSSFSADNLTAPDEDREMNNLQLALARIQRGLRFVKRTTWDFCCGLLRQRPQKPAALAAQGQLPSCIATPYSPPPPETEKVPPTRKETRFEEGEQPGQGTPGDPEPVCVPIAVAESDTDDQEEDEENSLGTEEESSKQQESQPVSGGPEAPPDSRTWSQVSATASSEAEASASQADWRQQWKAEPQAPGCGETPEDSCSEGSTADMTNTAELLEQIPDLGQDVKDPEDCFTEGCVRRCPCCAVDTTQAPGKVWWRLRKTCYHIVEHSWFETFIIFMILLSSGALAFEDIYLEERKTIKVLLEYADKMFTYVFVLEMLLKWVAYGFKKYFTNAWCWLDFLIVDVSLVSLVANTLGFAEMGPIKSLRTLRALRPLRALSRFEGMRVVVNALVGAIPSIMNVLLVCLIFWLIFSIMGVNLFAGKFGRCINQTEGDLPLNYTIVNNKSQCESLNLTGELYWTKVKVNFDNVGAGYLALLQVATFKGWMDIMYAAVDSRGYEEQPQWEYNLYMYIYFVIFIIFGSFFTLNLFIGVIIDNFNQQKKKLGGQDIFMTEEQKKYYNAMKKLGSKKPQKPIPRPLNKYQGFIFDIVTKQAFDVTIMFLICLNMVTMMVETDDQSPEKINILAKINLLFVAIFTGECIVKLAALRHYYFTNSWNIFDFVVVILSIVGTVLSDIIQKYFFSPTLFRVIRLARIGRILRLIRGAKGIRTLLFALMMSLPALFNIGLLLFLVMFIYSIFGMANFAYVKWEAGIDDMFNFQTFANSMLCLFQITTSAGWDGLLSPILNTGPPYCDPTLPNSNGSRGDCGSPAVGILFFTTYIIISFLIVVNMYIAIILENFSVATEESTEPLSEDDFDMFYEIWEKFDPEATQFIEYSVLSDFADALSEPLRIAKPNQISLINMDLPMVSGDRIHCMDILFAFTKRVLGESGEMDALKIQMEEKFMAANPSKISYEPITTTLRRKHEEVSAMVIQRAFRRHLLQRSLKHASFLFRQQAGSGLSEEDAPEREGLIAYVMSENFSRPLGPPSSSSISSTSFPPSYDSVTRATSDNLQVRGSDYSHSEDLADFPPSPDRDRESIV

| SMILES | IC50 [2] [nM] | Blocking activity on IK(ACh) [2] | Blocking activity on IK1 [3] | Blocking activity on IKs [4] | Blocking activity on Ito [5] | Blocking activity on INa [6] | Blocking activity on IK(ATP) [7] | other results |
| --- | --- | --- | --- | --- | --- | --- | --- | --- |
| CC(C)NCC(O)COc1cccc2ccccc12 (centres unmarked) [Propranolol] | 56000 | – | – | – | – | – | – | IC50 ([1]; current induced by adenosine): 8000 nM |
| CC(C)NCC(O)c1ccc(NS(C)(=O)=O)cc1 (racemic) [d,l-sotalol] | 36000 | Yes (Mori) | Yes | No | Yes | No | – | Blocking activity on IK(Ado) [1]: No; Inhibition of IK (Ado) Induced by Adenosine, in words ([1]; current induced by adenosine, literature): No effect |
| CC(C)N(CCC(C(N)=O)(c1ccccc1)c1ccccn1)C(C)C (centres unmarked) [Disopyramide] | 1700 | Yes | No | Yes | Yes | Yes | Yes | – |
| COc1ccc(C2CCN(CC[C@H]3CCOc4ccccc43)CC2)cc1OC [Terikalant] | 2000 | Yes | Yes | Yes | Yes | No | No | Blocking activity on IK(Ado) [1]: Yes; IC50 ([1]; current induced by adenosine): 2000 nM |
| Cn1c(NCCN(CCO)CCCc2ccc([N+](=O)[O-])cc2)cc(=O)n(C)c1=O [MS-551] | 11000 | – | – | – | – | – | – | Inhibition of IK (Ado) Induced by Adenosine, effect at 100 μM ([1]; literature): Some effect at 100 μM |
| C=C[C@H]1C[N@@]2CC[C@H]1C[C@@H]2[C@@H](O)c1ccnc2ccc(OC)cc12 [Quinidine] | 1600 | Yes | No | No | Yes | Yes | Yes | – |
| Cc1cccc(CCN2CCC(C(=O)c3ccc(NS(C)(=O)=O)cc3)CC2)n1 [Example E-4031] | 8000 | – | – | – | – | – | – | Inhibition of IK (Ado) Induced by Adenosine, effect at 100 μM ([1]; literature): Some effect at 100 μM |
| O=C(NCC1CCCCN1)c1cc(OCC(F)(F)F)ccc1OCC(F)(F)F (centres unmarked) [Flecainide] | 3600 | Yes | No | No | Yes | Yes | Yes | – |
| CCN(CC)CCCN(c1ccccc1)C1Cc2ccccc2C1 [Aprinidine] | 400 | Yes | No | No | Yes | Yes | – | – |
| CCCCc1oc2ccc(NS(C)(=O)=O)cc2c1C(=O)c1ccc(OCCCN(CCCC)CCCC)cc1 [Dronedarone] | 10 | Yes | – | Yes | – | Yes | – | – |
| N[C@@H](Cc1cc(I)c(Oc2ccc(O)c(I)c2)c(I)c1)C(=O)O [Example T3, triiodthyronine] | – | – | – | – | – | – | – | Acute effects on IK(Ado) [8]: does not have acute effects; Acute effects on IK(ACh) [9]: does not have acute effects |
| Cc1cccc(C)c1NC(=O)CC12CCCN1CCC2 [SUN 1165] | 29000 | – | – | – | – | – | – | – |
| Cc1oc2ccccc2c1C(=O)c1cc(I)c(O)c(I)c1 [Example E5, 2-methyl-3-(3,5-diiodo-4-hydroxy-benzoyl)benzofuran] | – | – | – | – | – | – | – | IC50 ([8]; current induced by adenosine): 1000 nM; IC50 ([9]; current induced by ACh or carbachol): 1000 nM |
